Broadly, the IC50 is the point on the concentration scale where inhibition reaches its midpoint. Lower therefore signals inhibition by little substance. In general, inhibition refers to the drop in the measured response relative to a control, in per cent.

Chain of Human VPS34 (Q8NEB9 whole entry): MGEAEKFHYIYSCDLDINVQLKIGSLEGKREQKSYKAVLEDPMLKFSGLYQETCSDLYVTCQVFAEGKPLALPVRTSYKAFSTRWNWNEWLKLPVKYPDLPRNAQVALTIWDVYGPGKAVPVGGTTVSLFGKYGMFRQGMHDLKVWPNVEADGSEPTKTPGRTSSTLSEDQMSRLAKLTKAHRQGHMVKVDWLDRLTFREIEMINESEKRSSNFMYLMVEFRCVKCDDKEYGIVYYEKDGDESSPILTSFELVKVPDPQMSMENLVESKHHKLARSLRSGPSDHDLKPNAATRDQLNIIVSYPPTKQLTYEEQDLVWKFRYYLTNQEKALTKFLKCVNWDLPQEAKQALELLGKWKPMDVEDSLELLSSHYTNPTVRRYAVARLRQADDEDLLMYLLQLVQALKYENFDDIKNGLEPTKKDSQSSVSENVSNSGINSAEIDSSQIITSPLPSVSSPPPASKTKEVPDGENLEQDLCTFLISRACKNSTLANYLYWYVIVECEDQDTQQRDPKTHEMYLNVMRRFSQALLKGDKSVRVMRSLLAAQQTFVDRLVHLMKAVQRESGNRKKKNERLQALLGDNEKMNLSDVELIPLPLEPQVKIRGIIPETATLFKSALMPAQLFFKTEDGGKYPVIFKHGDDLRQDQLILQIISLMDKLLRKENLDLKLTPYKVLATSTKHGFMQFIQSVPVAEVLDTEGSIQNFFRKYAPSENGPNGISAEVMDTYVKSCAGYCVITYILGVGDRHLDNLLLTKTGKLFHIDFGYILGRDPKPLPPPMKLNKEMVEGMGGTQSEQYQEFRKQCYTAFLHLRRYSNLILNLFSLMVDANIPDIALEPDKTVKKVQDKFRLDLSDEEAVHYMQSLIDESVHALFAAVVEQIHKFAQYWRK

One assay concerns the target Human VPS34 (Homo sapiens (Human), UniProt Q8NEB9). Description: Human VPS34 enzyme assay (Adapta TR-FRET). It is filed as biochemical. Conditions: IC50 range class. In general terms: TR-FRET usually uses a lanthanide donor and a delayed reading to cut background.
The molecule `CC(=O)Nc1cc(-c2cnc(N)c(S(=O)(=O)NC(C)C)c2)ccn1` [Compound I-7, N-[6-amino-5-(isopropylsulfamoyl)-3,4′-bipyridin-2′-yl]acetamide] came in with an IC50 of less than 10 nM.

Still in this assay, the particulars now being: compound concentration 1.11 μM.
In the case of `Cc1c(-c2ccnc(N)c2)cnc(Cl)c1NS(=O)(=O)c1ccc(F)cc1F` [Compound I-287, N-(2′-amino-6-chloro-4-methyl-3,4′-bipyridin-5-yl)-2,4-difluorobenzenesulfonamide], the “Percent Inhibition” value stood at 91%.

The same assay, now with this note: compound concentration 1.11 μM; read-out: Percent Inhibition.
Take `Cc1nccc(Nc2cc(-c3cnc(C)c(C(N)=O)c3)ccn2)n1` [Compound I-280, 6-methyl-2′-[(2-methylpyrimidin-4-yl)amino]-3,4′-bipyridine-5-carboxamide]: the inhibition at 1.11 µM stood at 83%.

Turning to `CCc1c(-c2ccnc(NC(=O)C3CC3)c2)cnc(Cl)c1NS(=O)(=O)c1ccc(F)cc1F` [Compound I-278, N-(6-chloro-5-{[(2,4-difluorophenyl)sulfonyl]amino}-4-ethyl-3,4′-bipyridin-2′-yl)cyclopropanecarboxamide], the inhibition at 1.11 µM is greater than 99%.

Consider `CC(=O)Nc1cc(-c2cncc(NS(=O)(=O)c3ccc(F)cc3F)c2)ccn1` [Compound I-12, N-(5-{[(2,4-difluorophenyl)sulfonyl]amino}-3,4′-bipyridin-2′-yl)acetamide], for which the inhibition at 1.11 µM was greater than 99%.

Consider `CC(=O)Nc1cc(-c2cnc3c(c2)S(=O)(=O)N[C@H](c2ccccc2)CO3)ccn1` [Compound I-420, (R)-N-(4-(1,1-dioxido-3-phenyl-3,4-dihydro-2H-pyrido[2,3-b][1,4,5]oxathiazepin-8-yl)pyridin-2-yl)acetamide], for which the inhibition at 1.11 µM came to 59%.

With `CC(=O)Nc1cc(-c2cnc3cnn(S(=O)(=O)C4CC4)c3c2)ccn1` [Compound I-2, N-{4-[1-(cyclopropylsulfonyl)-1H-pyrazolo[4,3-b]pyridin-6-yl]pyridin-2-yl}acetamide], the inhibition at 1.11 µM is greater than 99%.

In the case of `CC(=O)Nc1cc(-c2cnc(C)c(NS(=O)(=O)c3ccc(F)cc3F)c2C)ccn1` [Compound I-247, N-(5-{[(2,4-difluorophenyl)sulfonyl]amino}-4,6-dimethyl-3,4′-bipyridin-2′-yl)acetamide], the inhibition at 1.11 µM is greater than 99%.

In the case of `CNc1ncc(-c2ccnc(NC(C)=O)c2)cc1S(=O)(=O)Nc1ccc(F)cc1F` [Compound I-63, N-{5-[(2,4-difluorophenyl)sulfamoyl]-6-(methylamino)-3,4′-bipyridin-2′-yl}acetamide], the inhibition at 1.11 µM is greater than 99%.

With `Cc1ncc(-c2ccnc(NC(=O)C3CC3)c2)cc1NS(=O)(=O)c1ccc(Cl)cc1F` [Compound I-433, N-(5-{[(4-chloro-2-fluorophenyl)sulfonyl]amino}-6-methyl-3,4′-bipyridin-2′-yl)cyclopropanecarboxamide], the inhibition at 1.11 µM came to 93%.

As to `CC(=O)Nc1cc(-c2cncc(S(=O)(=O)N(C)C)c2)ccn1` [Compound I-137, N-[5-(dimethylsulfamoyl)-3,4′-bipyridin-2′-yl]acetamide], the inhibition at 1.11 µM was greater than 99%.

In the case of `COc1nc(C)nc(Nc2cc(-c3cnc(C)c(NS(=O)(=O)c4ccc(F)cc4F)c3)ccn2)n1` [Compound I-375, 2,4-difluoro-N-{2′-[(4-methoxy-6-methyl-1,3,5-triazin-2-yl)amino]-6-methyl-3,4′-bipyridin-5-yl}benzenesulfonamide], the inhibition at 1.11 µM amounted to 99%.

Consider `CC(=O)Nc1cc(-c2cnc(N)c(S(=O)(=O)NC(C)C)c2)ccn1` [Compound I-7, N-[6-amino-5-(isopropylsulfamoyl)-3,4′-bipyridin-2′-yl]acetamide], for which the inhibition at 1.11 µM is greater than 99%.

In the case of `CC(=O)Nc1cc(-c2cnc(N)c(S(=O)(=O)N(C)CC3CC3)c2)ccn1` [Compound I-110, N-{6-amino-5-[(cyclopropylmethyl)(methyl)sulfamoyl]-3,4′-bipyridin-2′-yl}acetamide], the inhibition at 1.11 µM was greater than 99%.

In the case of `CC(=O)Nc1cc(-c2cnc(C)c(NS(=O)(=O)c3ccc(Cl)cc3)c2)ccn1` [Compound I-154, N-(5-{[(4-chlorophenyl)sulfonyl]amino}-6-methyl-3,4′-bipyridin-2′-yl)acetamide], the inhibition at 1.11 µM is greater than 99%.

On to `CC(=O)Nc1cc(-c2cnc(Cl)c(NS(=O)(=O)c3ccccc3)c2)c(C)cn1` [Compound I-56, N-{6-chloro-5′-methyl-5-[(phenylsulfonyl)amino]-3,4′-bipyridin-2′-yl}acetamide], for which the inhibition at 1.11 µM is greater than 99%.

`CC(=O)Nc1cc(-c2cnc3c(c2)c(S(=O)(=O)N2CCCC2)cn3C)ccn1` [Compound I-151, N-{4-[1-methyl-3-(pyrrolidin-1-ylsulfonyl)-1H-pyrrolo[2,3-b]pyridin-5-yl]pyridin-2-yl}acetamide]: the inhibition at 1.11 µM was greater than 99%.

Take `CC(=O)Nc1cc(-c2cnc(Cl)c(NS(=O)(=O)c3cc(F)ccc3F)c2C)ccn1` [Compound I-227, N-(6-chloro-5-{[(2,5-difluorophenyl)sulfonyl]amino}-4-methyl-3,4′-bipyridin-2′-yl)acetamide]: the inhibition at 1.11 µM was greater than 99%.

For `CCCCN(CCCC)S(=O)(=O)Nc1cc(-c2ccnc(NC(C)=O)c2)cnc1C` [Compound I-350, N-{5-[(dibutylsulfamoyl)amino]-6-methyl-3,4′-bipyridin-2′-yl}acetamide], the inhibition at 1.11 µM is greater than 99%.

In the case of `COc1ncc(-c2ccnc(NC(C)=O)c2)cc1S(=O)(=O)Nc1ccc(F)cc1F` [Compound I-107, N-{5-[(2,4-difluorophenyl)sulfamoyl]-6-methoxy-3,4′-bipyridin-2′-yl}acetamide], the inhibition at 1.11 µM was greater than 99%.

For the molecule `Cc1nccc(Nc2cc(-c3cc(N)c4ccnn4c3)ccn2)n1` [Compound I-480, 6-{2-[(2-methylpyrimidin-4-yl)amino]pyridin-4-yl}pyrazolo[1,5-a]pyridin-4-amine], the inhibition at 1.11 µM came out at 99%.

On to `COc1ncc(-c2ccnc(NC(C)=O)c2)cc1S(=O)(=O)Nc1cc(Cl)ccc1Cl` [Compound I-432, N-{5-[(2,5-dichlorophenyl)sulfamoyl]-6-methoxy-3,4′-bipyridin-2′-yl}acetamide], for which the inhibition at 1.11 µM is 98%.

Turning to `CCCCS(=O)(=O)Nc1cc(-c2ccnc(NC(C)=O)c2)cnc1C` [Compound I-373, N-{5-[(butylsulfonyl)amino]-6-methyl-3,4′-bipyridin-2′-yl}acetamide], the inhibition at 1.11 µM was greater than 99%.

Take `CC(=O)Nc1cc(-c2cnc(C)c(NS(=O)(=O)c3ccc(C)cc3F)c2)c(C)cn1` [Compound I-130, N-(5-{[(2-fluoro-4-methylphenyl)sulfonyl]amino}-5′,6-dimethyl-3,4′-bipyridin-2′-yl)acetamide]: the inhibition at 1.11 µM is greater than 99%.

On to `COc1cccc(S(=O)(=O)Nc2cc(-c3ccnc(NC(C)=O)c3)cnc2C)c1` [Compound I-123], for which the inhibition at 1.11 µM is greater than 99%.

`CC(=O)Nc1cc(-c2cncc(NC(=O)c3ccc(F)cc3F)c2)ccn1` [Compound I-419, N-(2′-acetamido-3,4′-bipyridin-5-yl)-2,4-difluorobenzamide]: the inhibition at 1.11 µM came to 56%.

Take `CC(=O)Nc1cc(-c2cnc(Cl)c(NS(=O)(=O)c3c(Cl)cccc3Cl)c2C)ccn1` [Compound I-354, N-(6-chloro-5-{[(2,6-dichlorophenyl)sulfonyl]amino}-4-methyl-3,4′-bipyridin-2′-yl)acetamide]: the inhibition at 1.11 µM amounted to 98%.

Take `CC(=O)Nc1cc(-c2cnc(N)c(S(=O)(=O)Nc3ccc4ccccc4c3)c2)ccn1` [Compound I-98, N-[6-amino-5-(2-naphthylsulfamoyl)-3,4′-bipyridin-2′-yl]acetamide]: the inhibition at 1.11 µM was greater than 99%.

Regarding `CC(=O)Nc1cc(-c2cnc3[nH]ncc3c2)ccn1` [Compound I-189, N-[4-(1H-pyrazolo[3,4-b]pyridin-5-yl)pyridin-2-yl]acetamide], the inhibition at 1.11 µM is greater than 99%.

Regarding `CC(=O)Nc1cc(-c2cnc(C)c(NS(=O)(=O)c3ccc(F)cc3F)c2)ccn1` [Compound I-41, N-(5-{[(2,4-difluorophenyl)sulfonyl]amino}-6-methyl-3,4′-bipyridin-2′-yl)acetamide], the inhibition at 1.11 µM is greater than 99%.

Turning to `Cc1nccc(Nc2cc(-c3cnc(Cl)c(NS(=O)(=O)N(C)C)c3C)ccn2)n1` [Compound I-381, N′-{6-chloro-4-methyl-2′-[(2-methylpyrimidin-4-yl)amino]-3,4′-bipyridin-5-yl}-N,N-dimethylsulfuric diamide], the inhibition at 1.11 µM is greater than 99%.

In the case of `CC(=O)Nc1cc(-c2cnc(C)c(NS(=O)(=O)c3ccc(C)cc3F)c2)ccn1` [Compound I-182, N-(5-{[(2-fluoro-4-methylphenyl)sulfonyl]amino}-6-methyl-3,4′-bipyridin-2′-yl)acetamide], the inhibition at 1.11 µM is greater than 99%.

With `CC(=O)Nc1cc(-c2cncc(S(=O)(=O)NC3CCC3)c2)ccn1` [Compound I-396, N-[5-(cyclobutylsulfamoyl)-3,4′-bipyridin-2′-yl]acetamide], the inhibition at 1.11 µM is 94%.

Consider `CC(=O)Nc1cc(-c2cc(NS(=O)(=O)c3ccc(F)cc3F)c3ncnn3c2)ccn1` [Compound I-340, N-[4-(8-{[(2,4-difluorophenyl)sulfonyl]amino}[1,2,4]triazolo[1,5-a]pyridin-6-yl)pyridin-2-yl]acetamide], for which the inhibition at 1.11 µM turned out to be 91%.

Turning to `CC(=O)Nc1cc(-c2cnc(C)c(N3CCNS3(=O)=O)c2)ccn1` [Compound I-352, N-[5-(1,1-dioxido-1,2,5-thiadiazolidin-2-yl)-6-methyl-3,4′-bipyridin-2′-yl]acetamide], the inhibition at 1.11 µM was 92%.

On to `COc1cc(F)ccc1S(=O)(=O)Nc1cc(-c2ccnc(NC(C)=O)c2)cnc1C` [Compound I-58, N-(5-{[(4-fluoro-2-methoxyphenyl)sulfonyl]amino}-6-methyl-3,4′-bipyridin-2′-yl)acetamide], for which the inhibition at 1.11 µM was greater than 99%.

As to `Cc1c(-c2ccnc(Nc3ccnc(C4CC4)n3)c2)cnc(Cl)c1N` [Compound I-355, 6-chloro-N~2~′-(2-cyclopropylpyrimidin-4-yl)-4-methyl-3,4′-bipyridine-2′,5-diamine], the inhibition at 1.11 µM came to 91%.

For the molecule `CC(=O)Nc1cc(-c2cnc(C#N)c(NS(=O)(=O)c3ccc(F)cc3F)c2)ccn1` [Compound I-411, N-(6-cyano-5-{[(2,4-difluorophenyl)sulfonyl]amino}-3,4′-bipyridin-2′-yl)acetamide], the inhibition at 1.11 µM amounted to 88%.

The values above are taken from patent US9802960B2 (MILLENNIUM PHARMACEUTICALS, INC., priority 2014, dated 2017).
